Results published in patent publication US20050197372A1 (priority 2002, published 2005).

Tests used:
[1] = test system: platelet/endothelial tetraspan antigen -3 (PETA-3, CD151); assay: Whole blood flow cytometry, PETA-3 expression; type: cell-based, human; settings: for Expression of platelet/endothelial tetraspan antigen -3 (PETA-3, CD151): baseline 88.7 ± 24.2
Protocol: (§1) None of them received aspirin or any other anti-platelet agents. All subjects underwent blood sampling after at least 30 minutes of rest and 2 or more hours of fasting. Blood was drawn between 8 and 10 a.m. in order to avoid any diurnal influence and sampled from an antecubital vein using a 21-gauge butterfly needle containing 3.8% sodium citrate (1:9 volume) after having discarded the first 1.5 ml of free running blood. Eleven Vacutainer tubes (4.5 ml) were collected for a total of 49 ml of whole blood-citrate mixture from each study participant. One tube was kept as an internal control and was incubated with buffer solution. […] To avoid possible observer bias, blood samples were coded and blinded. Sampling procedures, and platelet studies were performed by individuals unaware of the protocol.
(§2) The expression of platelet receptors was determined by using the following monoclonal antibodies: CD31 (platelet endothelial cell adhesion molecule (PECAM-1), CD41 (glycoprotein [GP] IIb/IIIa, (IIb (3), CD42b (GP Ib), CD 51/CD61 ((v (3, or vitronectin receptor), CD62p (P-selectin), CD107a (lysosome associated membrane protein-1; LAMP-1), CD 107b (LAMP-2), CD151 (platelet/endothelial tetraspan antigen-3; PETA-3), and PAC-1 for fibrinogen-platelet (PharMingen, San Diego, Calif.). Platelet-leukocyte interactions were assessed by using dual antibodies for a pan-platelet marker (CD 151), together with CD14, a monocyte/macrophage marker. The blood-citrate mixture (50 μl) was diluted with 450 μl Tris buffered saline (TBS) (10 mmol/L Tris, 0.15 mol/L sodium chloride) and mixed by gently inverting an Eppendorf tube 2 times. Five μl of the corresponding antibodies were then added to each solution and the samples were incubated for 30 minutes. After incubation, 400 μl of 2% buffered paraformaldehyde was added for fixation. The samples were analyzed by a Becton Dickinson FACScan flow cytometer set up to measure fluorescent light scatter, as described in Gurbel P A, et al., J Am Coll Cardiol. 1998; 31: 1466-1473. The data were collected in list mode files and then analyzed. P selectin was expressed as percent positive cells as described in Gurbel P A, et al, Am Heart J 2000; 139: 320-328. Other antigens were expressed as log mean fluorescence intensity.

[2] = test system: lysosome associated membrane protein -1 (LAMP-1, CD107a); assay: Whole blood flow cytometry, LAMP-1 expression; type: cell-based, human; settings: baseline 8.7 ± 3.2
Protocol: as §1, §2

[3] = test system: human platelets (platelet-rich plasma); assay: Platelet-rich plasma aggregation induced by 5 μM epinephrine; type: cell-based; settings: for Platelet rich plasma platelet aggregation induced by 5 μM epinephrine: 60 minutes at 37° C., baseline 78 ± 10
Protocol: as §1
The citrate and whole blood mixture were centrifuged at 1200 g for 5 minutes in order to obtain platelet-rich plasma (PRP) which was kept at room temperature for use within 1 hour. Platelet counts were determined for each PRP sample with a Coulter Counter ZM (Coulter Co., Hialeah, Fla.). Platelet numbers were adjusted to 3.50×10 ^8/ml with homologous platelet-poor plasma. Platelet aggregation (PA) was induced by 5 μM ADP, and 5 μM epinephrine. All agonists were obtained from Chronolog Corporation (Havertown, Pa.). Aggregation studies were performed using a 4 channel Chronolog Lumi-Aggregometer (model 560-Ca). Aggregation was expressed as the maximum percentage of light transmittance change (% max) from the baseline at the end of the recording time, using platelet-poor plasma as a reference. Aggregation curves were recorded for 6 minutes and analyzed according to internationally established standards. Ruggeri Z M, Semin Hemat 1994; 31: 229-239.

[4] = test system: glycoprotein Ib (GPIb, CD42b); assay: Whole blood flow cytometry, GP Ib expression; type: cell-based, human; settings: for Expression of glycoprotein Ib (GPIb, CD42b): baseline 246.4 ± 26.7
Protocol: as §1, §2

[5] = test system: platelet-leukocyte microparticles (CD151 + CD14); assay: Whole blood flow cytometry, platelet-leukocyte microparticles; type: cell-based, human; settings: for Formation of platelet-leukocyte microparticles (CD151 + CD14): baseline 92.2 ± 19.3
Protocol: as §1, §2

[6] = test system: shear-induced platelet aggregation; assay: PFA-100 closure time, epinephrine/collagen cartridge; type: cell-based, human; settings: for PFA-100 closure time with the epinephrine/collagen cartridge: baseline 201 ± 22
Protocol: as §1
The platelet function analyzer (PFA-100′, Dade Behring, Deerfield, Ill.) is a device that simulates changes in primary hemostasis after injury to a small vessel under flow conditions. Kundu S K, et al., Semin Thromb Hemost 1995; 21(Suppl 2): 106-112. The time required to obtain occlusion of the aperture was digitally recorded as a measure of shear-induced platelet aggregation. Closure time determinations were performed in duplicate.

[7] = test system: human platelets in whole blood; assay: Whole blood impedance platelet aggregation induced by collagen; type: cell-based; settings: for Whole blood impedance platelet aggregation induced by 1 μg/ml collagen: 60 minutes at 37° C., baseline 29 ± 7
Protocol: as §1
The methods are described in detail in Abbate R, et al., Amer J Clin Pathol 1986; 86: 91-96. Briefly, the whole blood citrate mixture was diluted 1:1 with 0.5 ml TBS, then swirled gently. The cuvette with the stirring bar was placed in the incubation well and allowed to warm to 37° C. for 5 minutes. Then the sample was transferred to the assay well. An electrode was placed in the sample cuvette. Platelet aggregation was stimulated with 1 μg/ml collagen. Platelet aggregation studies were performed using a Chrono-Log Whole Blood Aggregometer using Aggrolink” software. Platelet aggregability was expressed as the change in electrical impedance and is expressed in ohms.

[8] = test system: platelet vitronectin receptor (CD51/CD61); assay: Whole blood flow cytometry, vitronectin receptor expression; type: cell-based, human; settings: for Expression of platelet vitronectin receptor (CD51/CD61): baseline 11.2 ± 4.6
Protocol: as §1, §2

CC(O)CCC(=O)N(Cc1ccc(-c2ccccc2-c2nnn[nH]2)cc1)[C@H](C(=O)O)C(C)C (stereo partly drawn) [Valeryl 4-hydroxy valsartan, (S)-2{(4-Hydroxy-pentanoyl)-[2′-(1H-tetrazol-5-yl)-biphenyl-4-ylmethyl]amino}-3-methyl-butyric Acid]
Expression of platelet/endothelial tetraspan antigen -3 (PETA-3, CD151) ([1]; drug 10 nM): 89.4 ± 18.2 log MFI
Expression of platelet/endothelial tetraspan antigen -3 (PETA-3, CD151) ([1]; drug 100 nM): 92.7 ± 22.2 log MFI
Expression of platelet/endothelial tetraspan antigen -3 (PETA-3, CD151) ([1]; drug 1 μM): 90.5 ± 15.7 log MFI
Expression of platelet/endothelial tetraspan antigen -3 (PETA-3, CD151) ([1]; drug 10 μM): 84.2 ± 31.1 log MFI
Expression of platelet/endothelial tetraspan antigen -3 (PETA-3, CD151) ([1]; drug 100 μM): 93.4 ± 27.4 log MFI
Effect on PETA-3 (CD151) (in words) ([1]; whole blood flow cytometry): not associated with any effect
Expression of lysosome associated membrane protein -1 (LAMP-1, CD107a) ([2]; drug 10 nM): 10.2 ± 3.6 log MFI
Expression of lysosome associated membrane protein -1 (LAMP-1, CD107a) ([2]; drug 100 nM): 9.0 ± 4.0 log MFI
Expression of lysosome associated membrane protein -1 (LAMP-1, CD107a) ([2]; drug 1 μM): 6.6 ± 2.9 log MFI
Expression of lysosome associated membrane protein -1 (LAMP-1, CD107a) ([2]; drug 10 μM): 5.8 ± 3.2 log MFI
Expression of lysosome associated membrane protein -1 (LAMP-1, CD107a) ([2]; drug 100 μM): 8.0 ± 3.4 log MFI
Effect on epinephrine-induced platelet aggregation (in words) ([3]; PRP, 5 μM epinephrine, preincubation with escalating doses 10 nM to 100 μM): inhibited epinephrine-induced aggregation in concentration 1 μM and 10 μM
Platelet rich plasma platelet aggregation induced by 5 μM epinephrine ([3]; drug 10 nM): 77 ± 10%
Platelet rich plasma platelet aggregation induced by 5 μM epinephrine ([3]; drug 100 nM): 76 ± 9%
Platelet rich plasma platelet aggregation induced by 5 μM epinephrine ([3]; drug 1 μM): 54 ± 11%
Platelet rich plasma platelet aggregation induced by 5 μM epinephrine ([3]; drug 10 μM): 56 ± 13%
Platelet rich plasma platelet aggregation induced by 5 μM epinephrine ([3]; drug 100 μM): 52 ± 9%
Effect on epinephrine-induced aggregation, FIG. 1 aggregation curves (in words) ([3]; one study patient, incubation with 1 μM): blocks epinephrine-induced aggregation
Expression of glycoprotein Ib (GPIb, CD42b) ([4]; drug 10 nM): 236.4 ± 18.7 log MFI
Expression of glycoprotein Ib (GPIb, CD42b) ([4]; drug 100 nM): 267.9 ± 39.4 log MFI
Expression of glycoprotein Ib (GPIb, CD42b) ([4]; drug 1 μM): 255.5 ± 24.8 log MFI
Expression of glycoprotein Ib (GPIb, CD42b) ([4]; drug 10 μM): 249.7 ± 41.8 log MFI
Expression of glycoprotein Ib (GPIb, CD42b) ([4]; drug 100 μM): 248.1 ± 19.5 log MFI
Effect on GP Ib (CD42) (in words) ([4]; whole blood flow cytometry): not associated with any effect
Formation of platelet-leukocyte microparticles (CD151 + CD14) ([5]; drug 10 nM): 99.4 ± 29.7 log MFI
Formation of platelet-leukocyte microparticles (CD151 + CD14) ([5]; drug 100 nM): 94.3 ± 18.7 log MFI
Formation of platelet-leukocyte microparticles (CD151 + CD14) ([5]; drug 1 μM): 90.7 ± 20.5 log MFI
Formation of platelet-leukocyte microparticles (CD151 + CD14) ([5]; drug 10 μM): 89.2 ± 18.7 log MFI
Formation of platelet-leukocyte microparticles (CD151 + CD14) ([5]; drug 100 μM): 95.6 ± 19.9 log MFI
Effect on platelet-leukocyte microparticles (CD151+14) (in words) ([5]; whole blood flow cytometry): not associated with any effect
Antiplatelet properties compared with valsartan (in words) ([6]; cartridge-based analyzers (PFA-100 and Ultegra)): stronger antiplatelet properties than valsartan
PFA-100 closure time with the epinephrine/collagen cartridge ([6]; drug 10 nM): 179 ± 28 s
PFA-100 closure time with the epinephrine/collagen cartridge ([6]; drug 100 nM): 190 ± 24 s
PFA-100 closure time with the epinephrine/collagen cartridge ([6]; drug 1 μM): 259 ± 20 s
PFA-100 closure time with the epinephrine/collagen cartridge ([6]; drug 10 μM): 257 ± 25 s
PFA-100 closure time with the epinephrine/collagen cartridge ([6]; drug 100 μM): 232 ± 31 s
Effect on collagen-induced platelet aggregation in whole blood (in words) ([7]; 1 μM collagen as printed in text, within the range of therapeutic activity): inhibited aggregation
Whole blood impedance platelet aggregation induced by 1 μg/ml collagen ([7]; drug 10 nM): 32 ± 8 ohms
Whole blood impedance platelet aggregation induced by 1 μg/ml collagen ([7]; drug 100 nM): 31 ± 9 ohms
Whole blood impedance platelet aggregation induced by 1 μg/ml collagen ([7]; drug 1 μM): 14 ± 6 ohms
Whole blood impedance platelet aggregation induced by 1 μg/ml collagen ([7]; drug 10 μM): 16 ± 8 ohms
Whole blood impedance platelet aggregation induced by 1 μg/ml collagen ([7]; drug 100 μM): 17 ± 8 ohms
Expression of platelet vitronectin receptor (CD51/CD61) ([8]; drug 10 nM): 12.1 ± 4.2 log MFI
Expression of platelet vitronectin receptor (CD51/CD61) ([8]; drug 100 nM): 8.5 ± 3.1 log MFI
Expression of platelet vitronectin receptor (CD51/CD61) ([8]; drug 1 μM): 8.1 ± 3.8 log MFI
Expression of platelet vitronectin receptor (CD51/CD61) ([8]; drug 10 μM): 7.2 ± 5.6 log MFI
Expression of platelet vitronectin receptor (CD51/CD61) ([8]; drug 100 μM): 7.6 ± 3.3 log MFI
Effect on expression of vitronectin receptors (in words) ([8]; whole blood flow cytometry): moderately reduced
